Measurements taken from US11298333B1, “Methods of reducing the risk of cardiovascular events in a subject” (Amarin Pharmaceuticals Ireland Limited, priority 2018, dated 2022).

What was measured:
[1] = system: statin-treated patients with a history of atherosclerosis or diabetes; assay: REDUCE-IT Example 2: recurrent and total ischemic events (Andersen-Gill, Wei-Lin-Weissfeld); type: in vivo, human
Text: The following study was a multi-center, placebo-controlled clinical trial the details of which are described above in Example 1, the REDUCE-IT design. […] Randomization was stratified by cardiovascular risk cohort (i.e., secondary or primary prevention), use of ezetimibe, and by geographic region.
The primary outcome for the study was total recurrent events consisting of the composite of cardiovascular death, nonfatal myocardial infarction, nonfatal stroke, coronary revascularization, or hospitalization for unstable angina. Recurrent event analyses were also performed for the key secondary endpoint, a composite of cardiovascular death, non-fatal myocardial infarction, or non-fatal stroke. For each of these composite endpoints, the effects of icosapent ethyl in the secondary and primary prevention strata were examined separately.
Demographic and baseline disease characteristics are presented using frequencies and percentages for categorical variables and medians with interquartile ranges for continuous variables. Between treatment group comparisons were derived using the chi-square test for categorical variables and Wilcoxon rank test for continuous variables. All clinical endpoint events used in the efficacy analyses were adjudicated by an independent Clinical Endpoint Committee (CEC) who were blinded to the treatment assignment. Since the primary efficacy endpoint was the time from randomization to the first occurrence of any component of the composite endpoint, and recurrence of such events within each patient is possible, a pre-specified analysis using a Cox proportional-hazard with the counting-process formulation of Andersen and Gill was performed to model the first and all recurrent cardiovascular events. Hazard ratios (HR) and corresponding 95% confidence intervals (CI) are reported from this model. In addition, as a marginal model and an extension of survival models based on the Cox proportional hazard model, the modified Wei-Lin-Weissfeld (WLW) method for analysis of recurrent events in the presence of deaths was carried out as a supportive analysis. In addition, as pre-specified, a recurrent event analysis using the Andersen-Gill and Wei-Lin-Weissfeld methods were carried out for the individual primary event components other than CV death. Though not pre-specified, additional recurrent event analyses were performed for the key secondary endpoint, which is a composite of CV death, non-fatal MI, or non-fatal stroke, and for the primary endpoint and the key secondary endpoint in the primary and secondary prevention strata to explore further the consistency of clinical benefit of icosapent ethyl. In subgroup analyses of the two cardiovascular risk strata (i.e., primary and secondary prevention), site-level discrepancies in cardiovascular risk group assignment occurring at entry and detected during the study (1.8%) were adjusted to conform with documented medical history data prior to randomization. All efficacy analyses were performed according to the intention-to-treat principle. All tests were based on a 2-sided nominal significance level of 5% with no adjustments for multiple comparisons.

[2] = system: hypertriglyceridemic patients with cardiovascular disease or at high risk for cardiovascular disease; conditions: in vivo
Description: Specification of Variables and Procedures: Safety assessments included adverse events, clinical laboratory measurements (chemistry, hematology), 12-lead ECGs, vital signs (systolic and diastolic blood pressure, heart rate, respiratory rate, and body temperature), weight, waist circumference, and physical examinations as per Study Procedures in Table 1. […] All laboratory test results were evaluated by the investigator as to their clinical significance. Any observations at physical examinations or laboratory values considered by the investigator to be clinically significant were considered an adverse event.
An adverse event can therefore be any unfavorable and/or unintended sign (including an abnormal laboratory finding), symptom, or disease temporally associated with the use of an investigational medication product, whether or not related to the investigational medication product. All adverse events, including observed or volunteered problems, complaints, or symptoms, were recorded on the appropriate CRF. Each adverse event was evaluated for duration, intensity, and causal relationship with the study medication or other factors.
Serious Adverse Events: A serious adverse event (SAE) is defined as an adverse event that meets any of the following criteria: • Results in death; • Is life-threatening—The term “life-threatening” in the definition of “serious” refers to an event in which the patient was at risk of death at the time of the event. […] Important medical events that may not result in death, be life threatening, or require hospitalization were considered an SAE when, based upon appropriate medical judgment, they may have jeopardized the patient and may have required medical or surgical intervention to prevent one of the outcomes listed above.
Adverse Events of Special Interest: Bleeding-related adverse events, glucose control (fasting blood glucose and HbA1c), and indicators of hepatic disorders (e.g., ALT or AST increases >3×ULN, total bilirubin increases of ≥2×ULN) were summarized separately and compared between treatment groups.
Analysis of Safety: All analyses of safety were conducted on the safety population, which was defined as all randomized patients. The safety assessment was based on the frequency of adverse events, physical exams, vital signs and safety laboratory tests. AEs with new onset during the study between the initiation of study drug and 30 days after the last dose of study drug for each patient was considered treatment-emergent (TEAEs). This included any AE with onset prior to initiation of study drug and increased severity after the treatment initiation.
This included overall incidence rates (regardless of severity and relationship to study drug), and incidence rates for moderate or severe adverse events. A summary of SAEs and adverse events leading to early discontinuation (for ≥30 days) were presented through data listings. Patients who restarted study drug were included in the summary of AEs leading to discontinuation. Safety laboratory tests and vital signs were summarized by post-treatment change from baseline for each of the parameters using descriptive statistics by treatment group. Those patients with significant laboratory abnormalities were identified in data listings. Additional safety parameters were summarized in data listings.

[3] = REDUCE-IT: blood pressure, repeated-measurements analysis of change from baseline; type: in vivo, human; conditions: 4 g per day; ITT; mixed effects model; exploratory
Description: Blood pressure was measured using a standardized process: • Patient sat for […] with feet flat on the floor and measurement arm supported so that the midpoint of the manometer cuff was at heart level; and • Used a mercury sphygmomanometer or automatic blood pressure device with an appropriately sized cuff with the bladder centered over the brachial artery.
Blood pressure was recorded to the nearest 2 mmHg mark on the manometer or to the nearest whole number on an automatic device. A blood pressure reading was repeated 1 to 2 minutes later, and the second reading recorded to the nearest 2 mmHg mark.
It is contemplated that a number of factors contribute to the significant reduction in the cardiovascular risk. Without intending to be bound by any particular theory, one of the contributing factors might relate to the dose and formulation of the icosapent ethyl administered to the patients, in marked contrast to previous studies of omega-3 fatty acid studies. An additional contributing factor could relate to the patients' blood pressure. […] These differences appear to be modest, but it is contemplated, that they might contribute to the benefits of icosapent ethyl. […]

[4] = without adjusting for stratification differences
[5] = without adjustment for stratification differences

## CC/C=C\C/C=C\C/C=C\C/C=C\C/C=C\CCCC(=O)OCC [Icosapent Ethyl, eicosapentaenoic acid ethyl ester]
[1]; Wei-Lin-Weissfeld model
  First occurrence of primary composite endpoint: HR vs placebo: 0.75
  Second occurrence of primary composite endpoint: HR vs placebo: 0.72
[1]; adjusted stratification
  Total key secondary endpoints: HR, primary prevention stratum: 0.71
  Total key secondary endpoints: HR, secondary prevention stratum: 0.70
  Total primary endpoint events: HR, primary prevention stratum: 0.79
  Total primary endpoint events: HR, secondary prevention stratum: 0.66
[1]; in vivo
  Cardiovascular deaths prevented per 100 patients treated for five years: 1
  Coronary revascularizations prevented per 100 patients treated for five years: 8
  Episodes of unstable angina prevented per 100 patients treated for five years: 2
  Myocardial infarctions prevented per 100 patients treated for five years: 4
  Relative risk reduction in total events for the primary composite efficacy outcome: 32%
  Strokes prevented per 100 patients treated for five years: 1
[1]; overall
  Total key secondary endpoints: HR vs placebo: 0.71
[1]; [4]
  Total primary endpoint events: HR, primary prevention stratum: 0.86
  Total primary endpoint events: HR, secondary prevention stratum: 0.65
[1]; [5]
  Total key secondary endpoint events: HR, primary prevention: 0.78
  Total key secondary endpoint events: HR, secondary prevention stratum: 0.69
[2]; human
  TEAE Upper respiratory tract infection: 312 (7.6%) n (%)
  TEAE Urinary tract infection: 253 (6.2%) n (%)
[2]
  Fatal bleeding events: no fatal bleeding events
[3]
  Average placebo-corrected reduction from baseline in diastolic blood pressure: 0.5 mm Hg
  Average placebo-corrected reduction from baseline in systolic blood pressure: 1.3 mm Hg
